Measured values published in publication PMC6130675 (Pharmaceutical Biology, 2017).
Values after ≈ are worked out from the molar mass of the structure shown. Read-outs that look alike come from different tables or passages of the source.

Experiments:
[1] = tested on: HHV-2, strain G (ATCC VR-734); assay: Standard plaque reduction assay against HHV-2 WT; assay type: cell-based
[2] = tested on: VACV (WR); assay: microbe, parasite or virus in culture; assay type: cell-based; settings: Orthopoxvirus vaccinia, Vero 76, 72 h
[3] = tested on: VACV WR-GFP virus (VV.NP-S-EGFP); assay: microbe, parasite or virus in culture; assay type: cell-based, Vaccinia virus; settings: for IC50: HeLa, 24 h, read-out: IC50 virus spread inhibition
[4] = tested on: VACV WR-GFP; assay type: cell-based, Vaccinia virus
[5] = tested on: C1008 cells; assay: Cytotoxicity measured by CPE in plaque reduction; settings: 25 μg/mL
[6] = tested on: HHV-2 E194; assay: Viral CPE inhibition assay (neutral red), HHV-2 E194 wild type; assay type: cell-based; settings: for IC50: 96 h, HHV-2 E194 (WT), Vero-76 cells, neutral red, day 4 post-infection; for SI (Selectivity Index CC50/IC50): HHV-2 E194
Source text: (§1) Viral CPE inhibition assay to determine KPB-100 anti-HHV-2 TK-mutant activity: HHV-2 thymidine kinase mutant (TK-minus; TK-), CI-10161 was a patient isolate obtained on 11 November 1986 from Bruce Ronnie at Burrows Welcome. It was amplified one time in MA-104 cells. HHV-2 TK- CI-1253 (18 February 1991) was a patient isolate obtained on 05 February 1992 from Bruce Ronnie at the department of medicine at the University of British Colombia and amplified one time in Vero cells. HHV-2 (E194) was the standard wild-type E194 strain from the USU archives. KPB-100 was suspended in water (100 μg/mL). It was diluted 1/2 in minimum essential medium (MEM) solution, then diluted down further in half-log dilutions in MEM solution with 50 μg/mL gentamicin and 2% foetal bovine serum. Each dilution was added to 5 wells of a 96-well plate with an overnight monolayer of 80–100% confluent Vero-76 cells. Acyclovir and cidofovir were tested in parallel as controls. Three wells of each dilution were then infected with virus, and two wells remained uninfected as toxicity controls. The MOI was approximated 0.001 for CI-1253, 0.002 for CI-10161 and 0.017 for E194. When untreated virus control wells reached near complete cytopathic effect (CPE), which was day-four post-infection in each case, plates were stained with neutral red dye (which measures cell viability, thus can be used for quantifying the vitality of both virus-infected and uninfected, drug-treated cell cultures) for approximately 2 h, then supernatant dye was removed and the incorporated dye was extracted in 50:50 Sorensen citrate buffer/ethanol, then read on a spectrophotometer at 540 nm. Optical density (OD) values were normalized based on cell and virus controls, then IC50, 50% cytotoxic concentration (CC50) values, and Selectivity Index (SI) were calculated by regression analysis.

[7] = tested on: HHV-2 TK- 1253; assay: Viral CPE inhibition assay (neutral red), HHV-2 TK- CI-1253; assay type: cell-based; settings: for IC50: 96 h, HHV-2 TK- 1253, Vero-76 cells, neutral red, day 4 post-infection; for SI (Selectivity Index CC50/IC50): HHV-2 TK- 1253
Source text: as §1

[8] = tested on: HHV-2 TK- 10161; assay: Viral CPE inhibition assay (neutral red), HHV-2 TK- CI-10161; assay type: cell-based; settings: for IC50: 96 h, HHV-2 TK- 10161, Vero-76 cells, neutral red, day 4 post-infection; for SI (Selectivity Index CC50/IC50): HHV-2 TK- 10161
Source text: as §1

[9] = Cytotoxicity in uninfected cultures (neutral red) run with the CPE inhibition assay; assay type: cell-based; settings: African green monkey, uninfected Vero-76 cells, run in parallel with each virus, read-out: CC50 (50% cytotoxic concentration of compound in uninfected cultures)
Source text: as §1

[10] = tested on: HHV-2 TK-; assay: Viral CPE inhibition assay, HHV-2 TK- (mean of the two TK- isolates); assay type: cell-based
Source text: as §1

[11] = tested on: HHV-1 (v2424); assay: HHV-1 virus yield reduction (VYR) assay; assay type: cell-based; settings: Vero 76, read-out: IC90 (concentration reducing virus yield by 1 log10 or 90%)
[12] = tested on: Vero-76 cells; settings: African green monkey
[13] = Vero 76, mean over TK- isolates 1253 and 10161, CPE inhibition, Vero-76 cells, read-out: mean IC50 against HHV-2 TK-

| SMILES | IC50 [1] | IC50 [2] | IC50 virus spread inhibition [3] | IC50 ([3]; Orthopoxvirus vaccinia) | anti-VACV activity in virus yield inhibition assay (in words) [4] | cytotoxicity (cytopathic effect) [5] | IC50 [6] | SI (Selectivity Index CC50/IC50) [6] | IC50 [7] | SI (Selectivity Index CC50/IC50) [7] | IC50 [8] | SI (Selectivity Index CC50/IC50) [8] | CC50 at 4 days [9] | IC50 [10, 13] | IC90 [11] | inhibition at 4 µg/mL ([3]; Orthopoxvirus vaccinia, 4 μg/mL, read-out: inhibition of virus spread) | IC50 ([10]; Vero 76, read-out: mean IC50 against HHV-2 TK-, mean over TK- isolates 1253 and 10161, CPE inhibition, Vero-76 cells) | mean IC50 against HHV-2 TK- ([10]; mean over TK- isolates 1253 and 10161, CPE inhibition, Vero-76 cells) | toxicity estimated visually [12] |
| --- | --- | --- | --- | --- | --- | --- | --- | --- | --- | --- | --- | --- | --- | --- | --- | --- | --- | --- | --- |
| COc1cc(O)cc(O[C@@H]2O[C@H](COC(=O)c3cc(OC)c(O)c(OC)c3)[C@@H](O)[C@H](O)[C@H]2O)c1 [KPB-200] | 2.9 µg/mL (≈ 6.01 µM) | 7.4 µg/mL (≈ 15.3 µM) | 13.19 µg/mL (≈ 27.3 µM) | 13.2 µg/mL (≈ 27.4 µM) | exhibited anti-VACV activities | < 20% |  |  |  |  |  |  |  |  |  |  |  |  |  |
| Nc1nc2c(ncn2COCCO)c(=O)[nH]1 [Acyclovir, acyclovir] |  |  |  |  |  |  | 0.49 µg/mL (≈ 2.18 µM) | >204 | 9.3 µg/mL (≈ 41.3 µM) | >11 | 15 µg/mL (≈ 66.6 µM) | >6.7 | > 100 µg/mL | 12.2 µg/mL (≈ 54.2 µM) |  |  |  |  |  |
| Nc1ccn(C[C@@H](CO)OCP(=O)(O)O)c(=O)n1 [Cidofovir, cidofovir] |  | 9.7 µg/mL (≈ 34.7 µM) |  |  |  |  | 4.3 µg/mL (≈ 15.4 µM) | >23 | 0.22 µg/mL (≈ 0.788 µM) | >450 | 1.2 µg/mL (≈ 4.3 µM) | >83 | > 100 µg/mL | 0.71 µg/mL (≈ 2.54 µM) |  |  |  |  |  |
| COc1cc([C@@H]2c3cc(OC)c(OC)cc3C[C@H](CO)[C@H]2CO[C@@H]2OC[C@@H](O)[C@H](O)[C@H]2O)ccc1O [KPB-100, scaphopetalone] | 2.5 µg/mL (≈ 4.94 µM) | 3.1 µg/mL (≈ 6.12 µM) |  | 1.63 µg/mL (≈ 3.22 µM) | exhibited anti-VACV activities | < 20% | 5.4 µg/mL (≈ 10.7 µM) | >4.6 | 4.6 µg/mL (≈ 9.08 µM) | >5.4 | 4.5 µg/mL (≈ 8.88 µM) | >5.6 | > 25 µg/mL |  | 3 µg/mL (≈ 5.92 µM) | ~100% | 4.5 µg/mL (≈ 8.88 µM) | 4.55 µg/mL | 20% |
